Test results as given in patent US20070049593A1 (priority 2004, published 2007).
Structures can show the parent of a compound that is named as a salt. Where two headings read alike, the source gives them in different places.

Target: T1, HCV polymerase (Hepatitis C virus genotype 1b, UniProt P26663)
T1 construct: a region encoding NS5B (J Virol 1991 March, 65(3), 1105-13, 544 amino acids after deletion of 47 amino acids on the C-terminal); 6xHis (C); made in house; host or cells: Escherichia coli
T1 sequence (P26663 2420-2963): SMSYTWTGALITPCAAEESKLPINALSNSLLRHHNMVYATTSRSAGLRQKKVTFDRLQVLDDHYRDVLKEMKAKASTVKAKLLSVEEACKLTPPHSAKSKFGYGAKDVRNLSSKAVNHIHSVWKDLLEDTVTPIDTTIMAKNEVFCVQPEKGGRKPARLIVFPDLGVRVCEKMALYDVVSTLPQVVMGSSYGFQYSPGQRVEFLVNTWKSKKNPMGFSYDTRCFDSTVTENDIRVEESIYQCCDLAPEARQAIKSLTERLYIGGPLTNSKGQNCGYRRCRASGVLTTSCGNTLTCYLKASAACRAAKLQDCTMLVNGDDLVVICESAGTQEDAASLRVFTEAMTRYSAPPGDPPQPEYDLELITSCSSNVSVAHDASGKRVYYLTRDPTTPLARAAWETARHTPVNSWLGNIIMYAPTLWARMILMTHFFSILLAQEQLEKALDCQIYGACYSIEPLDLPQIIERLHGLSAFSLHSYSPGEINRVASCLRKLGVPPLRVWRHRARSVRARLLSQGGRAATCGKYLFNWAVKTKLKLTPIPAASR
Assay: biochemical
Design: species or system HCV BK strain
Procedure, shortened: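 His-tagged NS5B (BK strain, 47-aa C-terminal deletion, E. coli-expressed) at 0.5 μg/ml copied 5 μg/ml run-off RNA bearing the HCV 3′ UTR with 2 μM UTP plus [3H]UTP, 50 μM ATP/GTP, in pH 7.5 Tris with 5 mM MgCl2, 25 °C, 90 min. TCA-precipitated RNA was counted and IC50 calculated.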

[1] = read-out: HCV polymerase inhibitory activity IC50, 25° C., 90 min, [5,6-3H]UTP incorporation into RNA

| SMILES | IC50 [1] [nM] | IC50 [nM] |
| --- | --- | --- |
| COC[C@@H]1CCCN(CCN2CCn3c(c(C4CCCCC4)c4ccc(C(=O)O)cc43)-c3ccc(C)cc32)C1 [Example 1-416, 13-cyclohexyl-5-[2-((R)-3-methoxymethylpiperidin-1-yl)ethyl]-3-methyl-6,7-dihydro-5H-benzo[5,6][1,4]diazepino[7,1-a]indole-10-carboxylic acid dihydrochloride] | < 100 |  |
| COC[C@H]1CCCN(CCN2CCn3c(c(C4CCCCC4)c4ccc(C(=O)O)cc43)-c3ccc(C)cc32)C1 [Example 1-417, 13-cyclohexyl-5-[2-((S)-3-methoxymethylpiperidin-1-yl)ethyl]-3-methyl-6,7-dihydro-5H-benzo[5,6][1,4]diazepino[7,1-a]indole-10-carboxylic acid dihydrochloride] |  | < 100 |
| CS(=O)(=O)c1cccc(COc2ccc3c(c2)N(CCN2CCCCC2)CCn2c-3c(C3CCCCC3)c3ccc(C(=O)O)cc32)c1 [Example 1-418, 13-cyclohexyl-3-(3-methanesulfonylbenzyloxy)-5-[2-(piperidin-1-yl)ethyl]-6,7-dihydro-5H-benzo[5,6][1,4]diazepino[7,1-a]indole-10-carboxylic acid dihydrochloride] |  | < 100 |
| CC[C@@H]1CCCN(CCN2CCn3c(c(C4CCCCC4)c4ccc(C(=O)O)cc43)-c3ccc(C)cc32)C1 [Example 1-420, 13-cyclohexyl-5-[2-((R)-3-ethylpiperidin-1-yl)ethyl]-3-methyl-6,7-dihydro-5H-benzo[5,6][1,4]diazepino[7,1-a]indole-10-carboxylic acid dihydrochloride] |  | < 100 |
| CC[C@H]1CCCN(CCN2CCn3c(c(C4CCCCC4)c4ccc(C(=O)O)cc43)-c3ccc(C)cc32)C1 [Example 1-422, 13-cyclohexyl-5-[2-((S)-3-ethylpiperidin-1-yl)ethyl]-3-methyl-6,7-dihydro-5H-benzo[5,6][1,4]diazepino[7,1-a]indole-10-carboxylic acid dihydrochloride] |  | < 100 |
| O=C(O)c1ccc2c(C3CCCCC3)c3n(c2c1)CCN(CCN1CCCCCCC1)c1ccccc1-3 [Example 1-423, 5-[2-(azocan-1-yl)ethyl]-13-cyclohexyl-6,7-dihydro-5H-benzo[5,6][1,4]diazepino[7,1-a]indole-10-carboxylic acid dihydrochloride] | < 100 |  |
| CCN(CC)CCCCN1CCn2c(c(C3CCCCC3)c3ccc(C(=O)O)cc32)-c2ccc(Cl)cc21 [Example 1-424, 3-chloro-13-cyclohexyl-5-(4-diethylaminobutyl)-6,7-dihydro-5H-benzo[5,6][1,4]diazepino[7,1-a]indole-10-carboxylic acid] |  | < 100 |
| Cc1ccc2c(c1)N(CCCCN1CCCCC1)CCn1c-2c(C2CCCCC2)c2ccc(C(=O)O)cc21 [Example 1-425, 13-cyclohexyl-3-methyl-5-[4-(piperidin-1-yl)butyl]-6,7-dihydro-5H-benzo[5,6][1,4]diazepino[7,1-a]indole-10-carboxylic acid dihydrochloride] |  | < 100 |
| CN1CCCC1CCN1CCn2c(c(C3CCCCC3)c3ccc(C(=O)O)cc32)-c2ccc(Cl)cc21 (centres unmarked) [Example 1-426, 3-chloro-13-cyclohexyl-5-[2-(1-methylpyrrolidin-2-yl)ethyl]-6,7-dihydro-5H-benzo[5,6][1,4]diazepino[7,1-a]indole-10-carboxylic acid dihydrochloride] |  | < 100 |
| CCOc1ccc2c(c1)N(CCN1CCC[C@@H](CCOC)C1)CCn1c-2c(C2CCCCC2)c2ccc(C(=O)O)cc21 [Example 1-427, 13-cyclohexyl-3-ethoxy-5-{2-[(S)-3-(2-methoxyethyl)piperidin-1-yl]ethyl}-6,7-dihydro-5H-benzo[5,6][1,4]diazepino[7,1-a]indole-10-carboxylic acid dihydrochloride] |  | < 100 |
| CCCN(CC)CCCN1CCn2c(c(C3CCCCC3)c3ccc(C(=O)O)cc32)-c2ccc(Cl)cc21 [Example 1-428, 3-chloro-13-cyclohexyl-5-[3-(N-ethyl-N-propylamino)propyl]-6,7-dihydro-5H-benzo[5,6][1,4]diazepino[7,1-a]indole-10-carboxylic acid dihydrochloride] |  | < 100 |
| CC(C)N(CCCN1CCn2c(c(C3CCCCC3)c3ccc(C(=O)O)cc32)-c2ccc(Cl)cc21)C(C)C [Example 1-429, 3-chloro-13-cyclohexyl-5-(3-diisopropylaminopropyl)-6,7-dihydro-5H-benzo[5,6][1,4]diazepino[7,1-a]indole-10-carboxylic acid dihydrochloride] |  | < 100 |
| CCc1ccc2c(c1)N(CCN1CCC[C@@H](CCOC)C1)CCn1c-2c(C2CCCCC2)c2ccc(C(=O)O)cc21 [Example 1-430, 13-cyclohexyl-3-ethyl-5-{2-[(S)-3-(2-methoxyethyl)piperidin-1-yl]ethyl}-6,7-dihydro-5H-benzo[5,6][1,4]diazepino[7,1-a]indole-10-carboxylic acid dihydrochloride] |  | < 100 |
| CCN(CCCN1CCn2c(c(C3CCCCC3)c3ccc(C(=O)O)cc32)-c2ccc(Cl)cc21)CCOC [Example 1-431, 3-chloro-13-cyclohexyl-5-{3-[N-ethyl-N-(2-methoxyethyl)amino]propyl}-6,7-dihydro-5H-benzo[5,6][1,4]diazepino[7,1-a]indole-10-carboxylic acid dihydrochloride] |  | < 100 |
| CCN(CCCOC)CCCN1CCn2c(c(C3CCCCC3)c3ccc(C(=O)O)cc32)-c2ccc(Cl)cc21 [Example 1-432, 3-chloro-13-cyclohexyl-5-{3-[N-ethyl-N-(3-methoxypropyl)amino]propyl}-6,7-dihydro-5H-benzo[5,6][1,4]diazepino[7,1-a]indole-10-carboxylic acid dihydrochloride] |  | < 100 |
| CCOCCCN(CC)CCCN1CCn2c(c(C3CCCCC3)c3ccc(C(=O)O)cc32)-c2ccc(Cl)cc21 [Example 1-433, 3-chloro-13-cyclohexyl-5-{3-[N-(3-ethoxypropyl)-N-ethylamino]propyl}-6,7-dihydro-5H-benzo[5,6][1,4]diazepino[7,1-a]indole-10-carboxylic acid dihydrochloride] |  | < 100 |
| COCC[C@@H]1CCCN(CCN2CCn3c(c(C4CCCCC4)c4ccc(C(=O)O)cc43)-c3ccc(F)cc32)C1 [Example 1-434, 13-cyclohexyl-3-fluoro-5-{2-[(S)-3-(2-methoxyethyl)piperidin-1-yl]ethyl}-6,7-dihydro-5H-benzo[5,6][1,4]diazepino[7,1-a]indole-10-carboxylic acid dihydrochloride] |  | < 100 |
| Cc1ccc2c(c1)N(CCN1CCCC(CO)C1)CCn1c-2c(C2CCCCC2)c2ccc(C(=O)O)cc21 (centres unmarked) [Example 1-435, 13-cyclohexyl-5-[2-(3-hydroxymethylpiperidin-1-yl)ethyl]-3-methyl-6,7-dihydro-5H-benzo[5,6][1,4]diazepino[7,1-a]indole-10-carboxylic acid dihydrochloride] |  | < 100 |
| CCN(CC)CC(C)(C)CN1CCn2c(c(C3CCCCC3)c3ccc(C(=O)O)cc32)-c2ccc(Cl)cc21 [Example 1-436, 3-chloro-13-cyclohexyl-5-(3-diethylamino-2,2-dimethylpropyl)-6,7-dihydro-5H-benzo[5,6][1,4]diazepino[7,1-a]indole-10-carboxylic acid dihydrochloride] |  | < 100 |
| CN1CCn2c(c(C3CCCCC3)c3ccc(C(=O)O)cc32)-c2ccc(OCCN3CCCCC3)cc21 [Example 1-437, 13-cyclohexyl-5-methyl-3-[2-(piperidin-1-yl)ethoxy]-6,7-dihydro-5H-benzo[5,6][1,4]diazepino[7,1-a]indole-10-carboxylic acid dihydrochloride] |  | < 100 |
| CN1CCn2c(c(C3CCCCC3)c3ccc(C(=O)O)cc32)-c2ccc(OCCC3CCNCC3)cc21 [Example 1-438, 13-cyclohexyl-5-methyl-3-[2-(piperidin-4-yl)ethoxy]-6,7-dihydro-5H-benzo[5,6][1,4]diazepino[7,1-a]indole-10-carboxylic acid dihydrochloride] |  | < 100 |
| CN1CCC(CCOc2ccc3c(c2)N(C)CCn2c-3c(C3CCCCC3)c3ccc(C(=O)O)cc32)CC1 [Example 1-439, 13-cyclohexyl-5-methyl-3-[2-(1-methylpiperidin-4-yl)ethoxy]-6,7-dihydro-5H-benzo[5,6][1,4]diazepino[7,1-a]indole-10-carboxylic acid dihydrochloride] |  | < 100 |
| Cc1ccc2c(c1)N(CCN1CCCC(C)(C)C1)CCn1c-2c(C2CCCCC2)c2ccc(C(=O)O)cc21 [Example 1-440, 13-cyclohexyl-5-[2-(3,3-dimethylpiperidin-1-yl)ethyl]-3-methyl-6,7-dihydro-5H-benzo[5,6][1,4]diazepino[7,1-a]indole-10-carboxylic acid dihydrochloride] |  | < 100 |
| CCN(CC)CC(CN1CCn2c(c(C3CCCCC3)c3ccc(C(=O)O)cc32)-c2ccc(Cl)cc21)OC (centres unmarked) [Example 1-441, 3-chloro-13-cyclohexyl-5-(3-diethylamino-2-methoxypropyl)-6,7-dihydro-5H-benzo[5,6][1,4]diazepino[7,1-a]indole-10-carboxylic acid dihydrochloride] |  | < 100 |
| CCN(CCO)CCCN1CCn2c(c(C3CCCCC3)c3ccc(C(=O)O)cc32)-c2ccc(Cl)cc21 [Example 1-442, 3-chloro-13-cyclohexyl-5-{3-[N-ethyl-N-(2-hydroxyethyl)amino]propyl}-6,7-dihydro-5H-benzo[5,6][1,4]diazepino[7,1-a]indole-10-carboxylic acid dihydrochloride] |  | < 100 |
| Cc1ccc2c(c1)N(CCN1CCC(CO)CC1)CCn1c-2c(C2CCCCC2)c2ccc(C(=O)O)cc21 [Example 1-443, 13-cyclohexyl-5-[2-(4-hydroxymethylpiperidin-1-yl)ethyl]-3-methyl-6,7-dihydro-5H-benzo[5,6][1,4]diazepino[7,1-a]indole-10-carboxylic acid dihydrochloride] |  | < 100 |
